Assay results reported in patent EP0751930B1 (G.D. SEARLE & CO., priority 1994, dated 1995).

Columns and labels:
[1] = target: T1, Recombinant human inducible nitric oxide synthase (hiNOS) (Homo sapiens, UniProt P35228); experiment: Citrulline Assay for Nitric Oxide Synthase (hiNOS); assay type: biochemical; settings: for IC50: conversion of [3H]-arginine to [3H]-citrulline, 30 µM L-arginine, 37°C, 15 minutes
T1 construct: made in house; host or cells: Sf9 insect cells (recombinant baculovirus)
Description: (§1) Nitric oxide synthase activity was measured by monitoring the conversion of [^3H]-arginine to [^3H]-citrulline. Mouse inducible nitric oxide synthase (miNOS) was prepared from an extract of LPS-treated RAW 264.7 cells and partially purified by DEAE-Sepharose chromatography. Rat brain constitutive nitric oxide synthase (rnNOS) was prepared from an extract of rat cerebellum and partially purified by DEAE-Sepharose chromatography. Enzyme and inhibitors were incubated at 37°C for 15 minutes in a reaction volume of 100 µL with the following components added to start the reaction: 50 mM Tris (pH 7.6), 1 mg/ml bovine serum albumin, 1 mM DTT, 2 mM CaCl2, 10 µM FAD, 10 µM tetrahydrobiopterin, 30 µM L-arginine containing L-[2,3-^3H]-arginine at 300 cpm/pmole and 1 mM NADPH. For constitutive NOS, 50 nM calmodulin was also added. The reaction was terminated by addition of cold stop buffer containing 10 mM EGTA, 100 mM HEPES, pH 5.5 and 1 mM citrulline. [^3H]-Citrulline was separated by chromatography on Dowex 50W X-8 cation exchange resin and radioactivity determined with a liquid scintillation counter.
Recombinant human inducible nitric oxide synthase (hiNOS) was extracted from Sf9 insect cells (infected with recombinant baculoviruses encoding a cDNA for human inducible nitric oxide synthase which has been isolated and purified from a lambda Zapll cDNA library made from RNA isolated from a colon sample from a patient with ulcerative colitis) and partially purified by DEAE-chromatography.

[2] = target: T2, Mouse inducible nitric oxide synthase (miNOS) (Mus musculus, UniProt P29477); experiment: Citrulline Assay for Nitric Oxide Synthase (miNOS); assay type: biochemical; settings: for IC50: conversion of [3H]-arginine to [3H]-citrulline, 30 µM L-arginine, 37°C, 15 minutes
T2 construct: prepared from an extract of LPS-treated RAW 264.7 cells and partially purified by DEAE-Sepharose chromatography; endogenous in cells; host or cells: LPS-treated RAW 264.7 cells
Description: as §1

[3] = target: T3, Rat brain constitutive nitric oxide synthase (rnNOS) (Rattus norvegicus, UniProt P29476); experiment: Citrulline Assay for Nitric Oxide Synthase (rnNOS); assay type: biochemical; settings: for IC50: conversion of [3H]-arginine to [3H]-citrulline, 30 µM L-arginine, 50 nM calmodulin added
T3 construct: prepared from an extract of rat cerebellum and partially purified by DEAE-Sepharose chromatography; from tissue; host or cells: rat cerebellum
Description: as §1

[4] = tested on: RAW 264.7 cells; experiment: Raw Cell Nitrite Assay; assay type: cell-based; settings: Mus musculus, RAW264.7; for IC50: nitrite production by intracellular iNOs, LPS-induced RAW 264.7 cells, L-arginine 30 µM
Description: RAW 264.7 cells are plated to confluency on a 96-well tissue culture plate grown overnight (17h) in the presence of LPS to induce NOS. A row of 3-6 wells were left untreated and served as controls for subtraction of nonspecific background. The media was removed from each well and the cells are washed twice with Krebs-Ringers-Hepes (25mM, pH 7.4) with 2 mg/ml glucose. The cells are then placed on ice and incubated with 50 µL of buffer containing L-arginine (30 µM) +/- inhibitors for lh. The assay is initiated by warming the plate to 37°C in a water bath for lh. Production of nitrite by intracellular iNOs is linear with time. To terminate the cellular assay, the plate of cells is placed on ice and the nitrite-containing buffer removed and analyzed for nitrite using a previously published fluorescent determination for nitrite. All values are the average of triplicate wells and are compared to a background-subtracted induced set of cells (100% value).

T3 sequence (P29476 whole entry): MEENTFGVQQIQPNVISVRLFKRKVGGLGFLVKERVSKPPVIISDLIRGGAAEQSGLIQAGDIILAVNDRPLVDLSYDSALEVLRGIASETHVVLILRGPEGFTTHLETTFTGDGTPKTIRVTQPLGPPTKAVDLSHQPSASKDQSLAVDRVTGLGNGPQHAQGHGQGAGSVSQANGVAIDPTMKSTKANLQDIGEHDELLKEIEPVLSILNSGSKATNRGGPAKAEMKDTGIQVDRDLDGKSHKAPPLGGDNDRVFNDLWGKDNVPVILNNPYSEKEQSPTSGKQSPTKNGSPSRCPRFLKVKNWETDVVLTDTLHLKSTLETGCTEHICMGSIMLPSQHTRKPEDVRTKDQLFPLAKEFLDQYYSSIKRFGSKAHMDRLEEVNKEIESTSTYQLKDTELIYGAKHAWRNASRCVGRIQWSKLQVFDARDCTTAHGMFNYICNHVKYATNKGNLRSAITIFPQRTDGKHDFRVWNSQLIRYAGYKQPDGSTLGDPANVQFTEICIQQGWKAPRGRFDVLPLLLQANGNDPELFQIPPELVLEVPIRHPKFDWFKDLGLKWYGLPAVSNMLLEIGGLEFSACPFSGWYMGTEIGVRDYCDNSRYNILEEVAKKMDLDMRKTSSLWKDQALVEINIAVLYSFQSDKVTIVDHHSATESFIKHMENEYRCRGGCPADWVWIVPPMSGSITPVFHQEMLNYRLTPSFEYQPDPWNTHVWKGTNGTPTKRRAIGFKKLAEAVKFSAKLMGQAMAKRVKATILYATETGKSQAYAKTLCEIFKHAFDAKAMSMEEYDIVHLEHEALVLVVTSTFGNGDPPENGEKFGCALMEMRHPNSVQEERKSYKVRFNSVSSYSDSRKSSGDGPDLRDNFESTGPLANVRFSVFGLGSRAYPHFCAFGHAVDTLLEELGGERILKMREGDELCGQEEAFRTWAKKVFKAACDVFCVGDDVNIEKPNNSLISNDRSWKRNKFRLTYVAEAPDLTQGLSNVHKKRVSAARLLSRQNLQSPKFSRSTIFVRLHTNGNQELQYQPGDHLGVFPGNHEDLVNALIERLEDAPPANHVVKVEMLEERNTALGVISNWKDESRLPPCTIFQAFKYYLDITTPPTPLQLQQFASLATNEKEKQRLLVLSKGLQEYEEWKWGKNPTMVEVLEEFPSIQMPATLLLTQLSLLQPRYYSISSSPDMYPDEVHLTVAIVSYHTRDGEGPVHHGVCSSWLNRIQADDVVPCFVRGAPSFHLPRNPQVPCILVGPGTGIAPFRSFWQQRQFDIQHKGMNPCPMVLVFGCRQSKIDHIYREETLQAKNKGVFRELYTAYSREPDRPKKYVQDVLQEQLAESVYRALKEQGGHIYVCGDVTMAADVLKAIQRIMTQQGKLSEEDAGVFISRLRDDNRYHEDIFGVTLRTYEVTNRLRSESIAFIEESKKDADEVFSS
T2 sequence (P29477 whole entry): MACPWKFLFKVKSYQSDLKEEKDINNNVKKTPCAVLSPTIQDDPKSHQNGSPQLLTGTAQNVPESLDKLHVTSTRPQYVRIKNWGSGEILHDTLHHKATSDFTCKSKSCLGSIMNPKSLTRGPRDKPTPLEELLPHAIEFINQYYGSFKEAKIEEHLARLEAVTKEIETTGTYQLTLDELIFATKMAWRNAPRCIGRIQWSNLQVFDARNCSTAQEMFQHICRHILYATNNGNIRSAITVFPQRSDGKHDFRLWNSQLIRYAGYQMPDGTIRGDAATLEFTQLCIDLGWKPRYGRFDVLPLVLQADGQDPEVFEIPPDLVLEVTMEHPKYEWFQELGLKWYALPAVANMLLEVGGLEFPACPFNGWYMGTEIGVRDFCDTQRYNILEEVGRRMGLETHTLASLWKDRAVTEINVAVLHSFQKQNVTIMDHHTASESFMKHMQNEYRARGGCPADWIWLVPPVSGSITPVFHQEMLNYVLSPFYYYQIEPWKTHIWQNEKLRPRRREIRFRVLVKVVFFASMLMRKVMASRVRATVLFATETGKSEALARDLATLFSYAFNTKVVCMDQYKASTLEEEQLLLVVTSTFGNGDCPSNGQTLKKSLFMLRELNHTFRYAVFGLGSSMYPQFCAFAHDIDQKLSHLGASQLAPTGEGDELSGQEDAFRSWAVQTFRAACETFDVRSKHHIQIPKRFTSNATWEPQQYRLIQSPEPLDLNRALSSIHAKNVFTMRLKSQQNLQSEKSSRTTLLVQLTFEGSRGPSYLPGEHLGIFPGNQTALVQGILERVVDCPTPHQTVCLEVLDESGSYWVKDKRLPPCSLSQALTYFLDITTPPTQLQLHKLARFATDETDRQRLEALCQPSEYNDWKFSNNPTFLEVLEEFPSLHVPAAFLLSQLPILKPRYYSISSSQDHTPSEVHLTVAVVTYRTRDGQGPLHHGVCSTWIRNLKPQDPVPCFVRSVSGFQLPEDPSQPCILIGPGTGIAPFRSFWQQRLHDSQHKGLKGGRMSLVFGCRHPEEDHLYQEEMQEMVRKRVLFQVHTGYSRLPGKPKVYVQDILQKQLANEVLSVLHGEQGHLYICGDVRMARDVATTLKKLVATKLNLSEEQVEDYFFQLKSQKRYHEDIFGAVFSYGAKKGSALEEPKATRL

Row | Structure (SMILES) | IC50 [1] [µM] | IC50 [2] [µM] | IC50 [3] [µM] | IC50 [4] [µM] | inhibition at 10 µM ([1]; @ 10 µM, read-out: hiNos Inh.) [%] | inhibition at 10 µM ([2]; @ 10 µM, read-out: miNOS Inh.) [%] | inhibition at 10 µM ([3]; @ 10 µM, read-out: rnNOS Inh.) [%] | inhibition at 10 µM ([4]; @ 10 µM, read-out: Raw Cell Inh.) [%]
1 | CC(=N)NCCCCC(C)(N)C(=O)O (racemic) [Example 2] | 26.6 | 7.2 | 193 | 52.5 | – | – | – | –
2 | CC(=N)NCC[Se]CC(N)C(=O)O (racemic) [Example 3, Nε-iminoethyl-aminoethylselenocysteine] | 35.5 | 5 | 229 | 0.37 | – | – | – | –
3 | CC(=N)NCCCCC(N)(CO)C(=O)O (racemic) [Example 4] | – | – | – | – | 39 | 39 | 8.6 | 8.6
4 | CC(=N)NCCCC(C)(N)C(=O)O (stereo not shown) [Example 1] | 73.5 | 34.9 | 356 | 25 | – | – | – | –
